Assay results: PubChem BioAssay AID330 (DTP/NCI, 2004)
“And” between values parts separate entries of the source, which are not always exact repeats. Identical values can stand only once. Inconclusive results and toxic doses are left out.

System: P388 leukemia ip, CD2F1 mice, survival T/C
Assay: NCI In Vivo Anticancer Drug Screen. Data for tumor model P388 Leukemia (intraperitoneal) in CD2F1 (CDF1) mice
Settings: endpoint: median survival time, higher = longer survival
Summary of the method: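 Mice carrying the transplanted tumor received test compound or vehicle. Survival was recorded in each group, and the value is the treated-group measurement divided by that of the vehicle-treated control group.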

[1] = dose: 50.0 mg/kg/injection, schedule: Q01DX009 (ip), vehicle: saline with Tween-80
[2] = dose: 100.0 mg/kg/injection, schedule: Q01DX009 (ip), vehicle: saline with Tween-80
[3] = dose: 50.0 mg/kg/injection, schedule: Q01DX005 (ip), vehicle: saline
[4] = dose: 60.0 mg/kg/injection, schedule: Q01DX005 (ip), vehicle: Klucel (hydroxypropylcellulose) (HPC)
[5] = dose: 50.0 mg/kg/injection, schedule: Q01DX005 (ip), vehicle: Klucel (hydroxypropylcellulose) (HPC)
[6] = dose: 100.0 mg/kg/injection, schedule: Q01DX005 (ip), vehicle: Klucel (hydroxypropylcellulose) (HPC)
[7] = dose: 200.0 mg/kg/injection, schedule: Q01DX005 (ip), vehicle: Klucel (hydroxypropylcellulose) (HPC)
[8] = dose: 100.0 mg/kg/injection, schedule: Q04DX003 (ip), vehicle: saline
[9] = dose: 200.0 mg/kg/injection, schedule: Q04DX003 (ip), vehicle: saline
[10] = dose: 50.0 mg/kg/injection, schedule: Q01DX005 (ip), vehicle: saline with Tween-80
[11] = dose: 100.0 mg/kg/injection, schedule: Q01DX005 (ip), vehicle: saline with Tween-80
[12] = dose: 200.0 mg/kg/injection, schedule: Q01DX005 (ip), vehicle: saline with Tween-80
[13] = dose: 50.0 mg/kg/injection, schedule: Q01DX009 (ip), vehicle: Klucel (hydroxypropylcellulose) (HPC)
[14] = dose: 100.0 mg/kg/injection, schedule: Q01DX009 (ip), vehicle: Klucel (hydroxypropylcellulose) (HPC)
[15] = dose: 200.0 mg/kg/injection, schedule: Q01DX009 (ip), vehicle: Klucel (hydroxypropylcellulose) (HPC)
[16] = dose: 200.0 mg/kg/injection, schedule: Q01DX001 (ip), vehicle: saline with Tween-80
[17] = dose: 200.0 mg/kg/injection, schedule: Q01DX009 (ip), vehicle: saline with Tween-80
[18] = dose: 100.0 mg/kg/injection, schedule: Q04DX002 (ip), vehicle: saline with Tween-80
[19] = dose: 200.0 mg/kg/injection, schedule: Q04DX002 (ip), vehicle: saline with Tween-80

In the case of COC(=O)CCCc1ccc(OC)c(OC)c1, the T/C (dose: 12.5 mg/kg/injection, schedule: Q01DX009 (ip), vehicle: saline with Tween-80) is reported as 100 % of control, the T/C (dose: 25.0 mg/kg/injection, schedule: Q01DX009 (ip), vehicle: saline with Tween-80) is reported as 92 % of control and the T/C [1] is reported as 95 % of control. The T/C [2] was 89 % of control.
CC1CN(C(=O)OCC23COC4(C)CCC(C)(OC2)N34)CC(C)O1 (stereo not drawn) was tested, and the T/C [3] was 100 % of control, the T/C (dose: 100.0 mg/kg/injection, schedule: Q01DX005 (ip), vehicle: saline) was 100 % of control and the T/C (dose: 200.0 mg/kg/injection, schedule: Q01DX005 (ip), vehicle: saline) was 100 % of control.
O=c1oc2nc(-c3ccccc3)[nH]c(=O)c2c(O)c1Cc1ccccc1 was tested, and the T/C (dose: 15.0 mg/kg/injection, schedule: Q01DX005 (ip), vehicle: Klucel (hydroxypropylcellulose) (HPC)) was 97 % of control, the T/C (dose: 30.0 mg/kg/injection, schedule: Q01DX005 (ip), vehicle: Klucel (hydroxypropylcellulose) (HPC)) was 98 % of control and the T/C [4] was 95 % of control and 96 % of control.
For COc1ccc(C2OC(=N)C(=S)N2C)c(OC)c1 (stereo not drawn), the T/C [4] was 102 % of control, the T/C (dose: 120.0 mg/kg/injection, schedule: Q01DX005 (ip), vehicle: Klucel (hydroxypropylcellulose) (HPC)) was 104 % of control and the T/C (dose: 240.0 mg/kg/injection, schedule: Q01DX005 (ip), vehicle: Klucel (hydroxypropylcellulose) (HPC)) was 101 % of control.
With COc1ccc(OC)c2cc3c(cc12)C(=O)C(C)=C(C)C3=O the T/C [5] was 89 % of control, the T/C [6] was 86 % of control and the T/C [7] was 88 % of control.
For S=C1NCCCN1, the T/C (dose: 25.0 mg/kg/injection, schedule: Q04DX003 (ip), vehicle: saline) was 99 % of control, the T/C (dose: 50.0 mg/kg/injection, schedule: Q04DX003 (ip), vehicle: saline) was 104 % of control and the T/C [8] was 100 % of control. For the same compound, the T/C [9] was 100 % of control.
With CN(CC(=O)O)N=Nc1ccc(C(N)=O)cc1 the T/C [5] was 100 % of control, the T/C [6] was 96 % of control and the T/C [7] was 100 % of control.
With c1ccc2cc(OCC(COc3ccc4ccccc4c3)(COc3ccc4ccccc4c3)COc3ccc4ccccc4c3)ccc2c1 the T/C (dose: 7.5 mg/kg/injection, schedule: Q01DX009 (ip), vehicle: saline with Tween-80) was 89 % of control.
In the case of NCCC(=O)NCCSSCCNC(=O)CCN, the T/C [8] is reported as 112 % of control and the T/C [9] is reported as 111 % of control.
O=C1NC(O)c2cccc(Br)c2O1 (stereo not drawn) was tested, and the T/C [10] was 93 % of control, the T/C [11] was 107 % of control and the T/C [12] was 117 % of control.
O=C(Nc1ccccc1-c1ccccc1)C(Cl)Cl was tested, and the T/C [13] was 101 % of control, the T/C [14] was 104 % of control and the T/C [15] was 87 % of control. For the same compound, the T/C (dose: 400.0 mg/kg/injection, schedule: Q01DX009 (ip), vehicle: Klucel (hydroxypropylcellulose) (HPC)) was 100 % of control.
CC(=O)CC1CCCC(C#N)N1 (stereo not drawn) was tested, and the T/C (dose: 12.5 mg/kg/injection, schedule: Q01DX005 (ip), vehicle: saline) was 97 % of control, the T/C (dose: 25.0 mg/kg/injection, schedule: Q01DX005 (ip), vehicle: saline) was 101 % of control and the T/C [3] was 100 % of control and 98 % of control.
For CCOC(=O)C(C)c1nnc(-c2ccc(OC)cc2)[nH]c1=O (stereo not drawn), the T/C [13] was 94 % of control, the T/C [14] was 97 % of control and the T/C [15] was 99 % of control.
In the case of CSc1nc(SC)c2c(CNC(C)=O)cn(Cc3ccccc3)c2n1, the T/C (dose: 50.0 mg/kg/injection, schedule: Q01DX001 (ip), vehicle: saline with Tween-80) is reported as 87 % of control and the T/C [16] is reported as 86 % of control and 87 % of control.
For O=S1(=O)C(c2ccccc2)=C(O)c2cc3ccccc3nc21, the T/C [1] was 107 % of control, the T/C [2] was 112 % of control and the T/C [17] was 107 % of control.
For O=Cc1ccc(C(Cl)(Cl)Cl)nc1, the T/C [1] was 105 % of control, the T/C [2] was 110 % of control and the T/C [17] was 115 % of control.
For COc1c2occc2c(NC(=O)CCl)c2ccc(=O)oc12, the T/C [18] was 100 % of control and the T/C [19] was 93 % of control.
With CCN(CC)C(=Nc1ccc(NC(=O)c2ccc(C(=O)Nc3ccc(N=C(c4ccccc4)N(CC)CC)cc3)cc2)cc1)c1ccccc1 the T/C [5] was 96 % of control, the T/C [6] was 97 % of control and the T/C [7] was 96 % of control.
In the case of CSc1nc2ccc(N3C(=O)C=CC3=O)cc2s1, the T/C (dose: 3.12 mg/kg/injection, schedule: Q01DX009 (ip), vehicle: Klucel (hydroxypropylcellulose) (HPC)) is reported as 102 % of control, the T/C (dose: 6.25 mg/kg/injection, schedule: Q01DX009 (ip), vehicle: Klucel (hydroxypropylcellulose) (HPC)) is reported as 105 % of control and the T/C (dose: 12.5 mg/kg/injection, schedule: Q01DX009 (ip), vehicle: Klucel (hydroxypropylcellulose) (HPC)) is reported as 101 % of control.
For CC(=O)[O][Sn]([CH3])([CH3])[c]1ccccc1, the T/C (dose: 1.56 mg/kg/injection, schedule: Q01DX009 (ip), vehicle: saline) was 98 % of control and 104 % of control, the T/C (dose: 3.12 mg/kg/injection, schedule: Q01DX009 (ip), vehicle: saline) was 98 % of control and 110 % of control and the T/C (dose: 6.25 mg/kg/injection, schedule: Q01DX009 (ip), vehicle: saline) was 98 % of control and 117 % of control and 96 % of control. The T/C (dose: 12.5 mg/kg/injection, schedule: Q01DX009 (ip), vehicle: saline) was 104 % of control and 120 % of control.
In the case of Cc1cc(=O)n(-c2cc(C)c3cc(Cl)ccc3n2)[nH]1, the T/C (dose: 100.0 mg/kg/injection, schedule: Q01DX001 (ip), vehicle: saline with Tween-80) is reported as 93 % of control, the T/C [16] is reported as 94 % of control and the T/C (dose: 400.0 mg/kg/injection, schedule: Q01DX001 (ip), vehicle: saline with Tween-80) is reported as 104 % of control.
In the case of CC(=O)NS(=O)(=O)c1ccc(N)cc1, the T/C (dose: 100.0 mg/kg/injection, schedule: Q01DX009 (ip), vehicle: saline sonified) is reported as 109 % of control, the T/C (dose: 132.0 mg/kg/injection, schedule: Q01DX009 (ip), vehicle: saline with Tween-80) is reported as 104 % of control and the T/C [17] is reported as 104 % of control. For the same compound, the T/C (dose: 300.0 mg/kg/injection, schedule: Q01DX009 (ip), vehicle: saline with Tween-80) was 113 % of control and the T/C (dose: 400.0 mg/kg/injection, schedule: Q01DX009 (ip), vehicle: saline sonified) was 104 % of control.
In the case of Cc1cc2c(cc1C)NC(c1ccc(C(N)=S)cc1)N2, the T/C [18] is reported as 92 % of control and the T/C [19] is reported as 86 % of control.
With Cc1ccc(S(=O)(=O)N(O)c2ccc(C)cc2C)cc1 the T/C [10] was 112 % of control and the T/C [11] was 107 % of control.
C[Si](C)(C)N=S1(=N[Si](C)(C)C)CCCC1 was tested, and the T/C (dose: 50.0 mg/kg/injection, schedule: Q01DX005 (ip), vehicle: olive oil, sesame oil, peanut oil) was 109 % of control, the T/C (dose: 100.0 mg/kg/injection, schedule: Q01DX005 (ip), vehicle: olive oil, sesame oil, peanut oil) was 109 % of control and the T/C (dose: 200.0 mg/kg/injection, schedule: Q01DX005 (ip), vehicle: olive oil, sesame oil, peanut oil) was 114 % of control.
In the case of CCOP1(OCC)(SSC)OC(=O)C(C)S1 (stereo not drawn), the T/C (dose: 5.0 mg/kg/injection, schedule: Q01DX005 (ip), vehicle: saline with Tween-80) is reported as 108 % of control, the T/C (dose: 10.0 mg/kg/injection, schedule: Q01DX005 (ip), vehicle: saline with Tween-80) is reported as 101 % of control and the T/C (dose: 20.0 mg/kg/injection, schedule: Q01DX005 (ip), vehicle: saline with Tween-80) is reported as 108 % of control. The T/C (dose: 60.0 mg/kg/injection, schedule: Q01DX005 (ip), vehicle: saline with Tween-80) was 94 % of control.
With CC(C)CC(C)N(C(=S)S)C(C)CC(C)C.[Zn+2] (stereo not drawn) the T/C [10] was 100 % of control, the T/C [11] was 104 % of control and the T/C [12] was 100 % of control.
With O=C(O)c1ncn2c(=O)n(CCCl)nnc12 the T/C [4] was 118 % of control.
In the case of CCOC(=O)/C=C/C(=O)O.CCOC(=O)/C=C/C(=O)O.[Mn].[NH-]CC(=O)O, the T/C [8] is reported as 96 % of control, the T/C [9] is reported as 96 % of control and the T/C (dose: 400.0 mg/kg/injection, schedule: Q04DX003 (ip), vehicle: saline) is reported as 98 % of control.
For CC(=O)C(C)C(C)=NCCN=C(C)C(C)C(C)=O (stereo not drawn), the T/C [5] was 110 % of control, the T/C [6] was 110 % of control and the T/C [7] was 103 % of control.
